Measured values reported in the NIST ThermoML archive (doi:10.1016/j.jct.2015.07.028).
Numbers after ± are expanded uncertainties.

Conditions: Liquid, Closed cell (Static) method

O [water]
Conditions | vapor or sublimation pressure [kPa]
276.1 K | 0.753 ± 0.011
276.16 K | 0.76 ± 0.011
278.47 K | 0.894 ± 0.013
280.8 K | 1.05 ± 0.015
283.11 K | 1.223 ± 0.02
285.49 K | 1.43 ± 0.021
285.52 K | 1.44 ± 0.021
288.24 K | 1.708 ± 0.022
290.65 K | 1.994 ± 0.026
290.71 K | 2.01 ± 0.026
293.51 K | 2.398 ± 0.03
295.49 K | 2.697 ± 0.034
295.58 K | 2.707 ± 0.034
298.22 K | 3.182 ± 0.038
298.33 K | 3.202 ± 0.039
300.72 K | 3.703 ± 0.045
300.8 K | 3.708 ± 0.045
302.99 K | 4.213 ± 0.051
305.57 K | 4.882 ± 0.057
305.6 K | 4.869 ± 0.057
307.8 K | 5.499 ± 0.065
310.42 K | 6.36 ± 0.074
310.49 K | 6.404 ± 0.074
312.73 K | 7.192 ± 0.083
315.28 K | 8.236 ± 0.095
315.37 K | 8.313 ± 0.096
317.67 K | 9.333 ± 0.11
320.11 K | 10.56 ± 0.12
320.2 K | 10.63 ± 0.12
322.5 K | 11.93 ± 0.14
322.54 K | 11.99 ± 0.14
325.01 K | 13.51 ± 0.15
